Activity calls are given as the source filed them. No rule for the calls is given here.
Tested on: CCRIS mutagenicity, Ames/micronucleus/aberration tests
Assay: CCRIS mutagenicity studies
[1] = Test System: AMES SALMONELLA TYPHIMURIUM, Strain/Indicator: TA98, Metabolic Activation: NONE, Method: PREINCUBATION
[2] = Test System: AMES SALMONELLA TYPHIMURIUM, Strain/Indicator: TA100, Metabolic Activation: NONE, Method: PREINCUBATION
[3] = Test System: AMES SALMONELLA TYPHIMURIUM, Strain/Indicator: TA100, Metabolic Activation: RAT, LIVER, S-9, PCB, Method: PREINCUBATION
[4] = Test System: AMES SALMONELLA TYPHIMURIUM, Strain/Indicator: TA98, Metabolic Activation: NONE, Method: STANDARD PLATE
[5] = Test System: AMES SALMONELLA TYPHIMURIUM, Strain/Indicator: TA98, Metabolic Activation: RAT, LIVER, S-9, AROCLOR 1254, Method: STANDARD PLATE
[6] = Test System: AMES SALMONELLA TYPHIMURIUM, Strain/Indicator: TA100, Metabolic Activation: NONE, Method: STANDARD PLATE

O=Cc1c(O)cc2c(c1O)C(=O)c1ccccc1C2=O
mutagenic call [1]: inactive; negative
mutagenic call (Test System: AMES SALMONELLA TYPHIMURIUM, Strain/Indicator: TA98, Metabolic Activation: RAT, LIVER, S-9, PCB, Method: PREINCUBATION): inactive; negative
mutagenic call [2]: inactive; negative
mutagenic call [3]: inactive; negative

CCOC(=O)c1ccccc1N
mutagenic call (Test System: AMES SALMONELLA TYPHIMURIUM, Strain/Indicator: TA98, Metabolic Activation: HAMSTER, LIVER, S-9, AROCLOR 1254 (10%), Method: PREINCUBATION): inactive; negative
mutagenic call [1]: inactive; negative
mutagenic call (Test System: AMES SALMONELLA TYPHIMURIUM, Strain/Indicator: TA98, Metabolic Activation: RAT, LIVER, S-9, AROCLOR 1254 (10%), Method: PREINCUBATION): inactive; negative
mutagenic call (Test System: AMES SALMONELLA TYPHIMURIUM, Strain/Indicator: TA100, Metabolic Activation: HAMSTER, LIVER, S-9, AROCLOR 1254 (10%), Method: PREINCUBATION): inactive; negative
mutagenic call [2]: inactive; negative
mutagenic call (Test System: AMES SALMONELLA TYPHIMURIUM, Strain/Indicator: TA100, Metabolic Activation: RAT, LIVER, S-9, AROCLOR 1254 (10%), Method: PREINCUBATION): inactive; negative
mutagenic call (Test System: AMES SALMONELLA TYPHIMURIUM, Strain/Indicator: TA1535, Metabolic Activation: HAMSTER, LIVER, S-9, AROCLOR 1254 (10%), Method: PREINCUBATION): inactive; negative
mutagenic call (Test System: AMES SALMONELLA TYPHIMURIUM, Strain/Indicator: TA1535, Metabolic Activation: NONE, Method: PREINCUBATION): inactive; negative
mutagenic call (Test System: AMES SALMONELLA TYPHIMURIUM, Strain/Indicator: TA1535, Metabolic Activation: RAT, LIVER, S-9, AROCLOR 1254 (10%), Method: PREINCUBATION): inactive; negative
mutagenic call (Test System: AMES SALMONELLA TYPHIMURIUM, Strain/Indicator: TA1537, Metabolic Activation: HAMSTER, LIVER, S-9, AROCLOR 1254 (10%), Method: PREINCUBATION): inactive; negative
mutagenic call (Test System: AMES SALMONELLA TYPHIMURIUM, Strain/Indicator: TA1537, Metabolic Activation: NONE, Method: PREINCUBATION): inactive; negative
mutagenic call (Test System: AMES SALMONELLA TYPHIMURIUM, Strain/Indicator: TA1537, Metabolic Activation: RAT, LIVER, S-9, AROCLOR 1254 (10%), Method: PREINCUBATION): inactive; negative

[N-]=[N+]=NCCC(c1ccccc1)c1ccccc1
mutagenic call [3]: active; positive

Cc1c(N)nc(C(CC(N)=O)NCC(N)C(N)=O)nc1C(=O)NC(C(=O)NC(C)C(O)C(C)C(=O)NC(C(=O)NCCc1nc(-c2nc(C(=O)NCCC[S+](C)C)cs2)cs1)C(C)O)C(O[C@@H]1O[C@@H](CO)[C@@H](O)[C@H](O)[C@@H]1O[C@H]1O[C@H](CO)[C@@H](O)[C@H](OC(N)=O)[C@@H]1O)c1cnc[nH]1 (some centres not stated)
mutagenic call (End Point: IN VITRO MICRONUCLEUS, Test System: CHO CELLS, Metabolic Activation: RAT, LIVER, S-9, AROCLOR 1254): active; positive
mutagenic call (End Point: In vitro micronucleus, Test System: Human lymphocytes from 200 volunteers (128 women, 72 men), Metabolic Activation: None): inactive; positive for gstt1-null and xd polymorphisms and spontaneous and bleomycin-induc
mutagenic call [1]: inactive; negative
mutagenic call (Test System: AMES SALMONELLA TYPHIMURIUM, Strain/Indicator: TA98, Metabolic Activation: S-9, Method: PREINCUBATION): inactive; negative
mutagenic call [2]: inactive; negative
mutagenic call (Test System: AMES SALMONELLA TYPHIMURIUM, Strain/Indicator: TA100, Metabolic Activation: S-9, Method: PREINCUBATION): inactive; negative
mutagenic call (Test System: AMES SALMONELLA TYPHIMURIUM, Strain/Indicator: TA102, Metabolic Activation: NONE, Method: STANDARD PLATE): active; positive
mutagenic call (Test System: AMES SALMONELLA TYPHIMURIUM, Strain/Indicator: TA2638A, Metabolic Activation: NONE, Method: STANDARD PLATE): inactive; negative

Cc1ccc(NCC2(O)OC[C@@H](O)[C@@H](O)[C@@H]2O)cc1 (some centres not stated)
mutagenic call (Test System: AMES SALMONELLA TYPHIMURIUM, Strain/Indicator: TA100, Metabolic Activation: NONE, Method: LIQUID INCUBATION): inactive; negative

CC(=O)[C@]1(O)Cc2c(O)c3c(c(O)c2[C@@H](O)C1)C(=O)c1c(O)cccc1C3=O
mutagenic call [4]: active; positive
mutagenic call [5]: active; positive
mutagenic call [6]: inactive; negative
mutagenic call (Test System: AMES SALMONELLA TYPHIMURIUM, Strain/Indicator: TA1538, Metabolic Activation: NONE, Method: STANDARD PLATE): inactive; negative

O=CN(O)c1ccc(Cl)c(Cl)c1
mutagenic call (Test System: AMES SALMONELLA TYPHIMURIUM, Strain/Indicator: TA97, Metabolic Activation: NONE, Method: STANDARD PLATE): inactive; negative
mutagenic call (Test System: AMES SALMONELLA TYPHIMURIUM, Strain/Indicator: TA97, Metabolic Activation: RAT, LIVER, S-9, AROCLOR 1254, Method: STANDARD PLATE): inactive; negative
mutagenic call [4]: inactive; negative
mutagenic call [5]: inactive; negative
mutagenic call [6]: inactive; negative
mutagenic call (Test System: AMES SALMONELLA TYPHIMURIUM, Strain/Indicator: TA100, Metabolic Activation: RAT, LIVER, S-9, AROCLOR 1254, Method: STANDARD PLATE): inactive; negative
mutagenic call (Test System: AMES SALMONELLA TYPHIMURIUM, Strain/Indicator: TA104, Metabolic Activation: NONE, Method: STANDARD PLATE): inactive; negative
mutagenic call (Test System: AMES SALMONELLA TYPHIMURIUM, Strain/Indicator: TA104, Metabolic Activation: RAT, LIVER, S-9, AROCLOR 1254, Method: STANDARD PLATE): inactive; negative

CCOS(=O)(=O)c1ccc(C)cc1
mutagenic call (End Point: IN VITRO MICRONUCLEUS, Test System: MOUSE LYMPHOMA L5178Y CELLS, Metabolic Activation: NONE): active; positive
mutagenic call (End Point: IN VITRO MICRONUCLEUS, Test System: MOUSE LYMPHOMA L5178Y CELLS, Metabolic Activation: RAT, LIVER, S-9): active; positive
mutagenic call (End Point: In vitro micronucleus, Test System: Chinese Hamster Ovary (CHO-WBL) cells, Metabolic Activation: None): active; positive (p<0.01)
mutagenic call [6]: inactive; negative; authors describe results as weakly positive
mutagenic call (Test System: AMES SALMONELLA TYPHIMURIUM, Strain/Indicator: TA100, Metabolic Activation: RAT, LIVER, S-9, Method: STANDARD PLATE): inactive; negative; authors describe results as weakly positive
mutagenic call (Test System: AMES SALMONELLA TYPHIMURIUM, Strain/Indicator: TA1535, Metabolic Activation: NONE, Method: STANDARD PLATE): active; positive
mutagenic call (Test System: UDS HUMAN FIBROBLASTS, Strain/Indicator: THY INCORP (NON-S-PHASE), Metabolic Activation: NONE, Method: LIQUID SCINTILLATION COUNTING): active; positive

NC(=O)/C=C/c1ccc([N+](=O)[O-])o1
mutagenic call [1]: active; positive
mutagenic call (Test System: UDS HUMAN FIBROBLASTS, Strain/Indicator: THY INCORP (NON-S-PHASE), Metabolic Activation: NONE, Method: AUTORADIOGRAPHY): active; positive

Source: PubChem BioAssay AID1259407 (Chemical Carcinogenesis Research Information System (CCRIS), 2018)
